In patent US5591714A, “Derivatives of A82846” (priority 1994, dated 1997):
Values after ≈ are worked out from the molar mass of the structure shown.

Columns and labels:
[1] = test system: Staphylococcus aureus X400; test: MIC, standard agar-dilution assay; type: cell-based
Method: (§1) The formula I compounds have in vitro and in vivo activity against Gram-positive pathogenic bacteria. The MIC's were determined using a standard agar-dilution assays.

[2] = test system: Staphylococcus aureus NRRL X1.1; test: MIC, standard agar-dilution assay; type: cell-based
Method: as §1

[3] = test system: Staphylococcus epidermidis EPI270; test: MIC, standard agar-dilution assay; type: cell-based
Method: as §1

[4] = test system: Klebsiella pneumoniae X26; test: MIC, standard agar-dilution assay; type: cell-based
Method: as §1

[5] = test system: Haemophilus influenzae C.L.; test: MIC, standard agar-dilution assay; type: cell-based
Method: as §1

[6] = test system: Staphylococcus epidermidis 222; test: MIC, standard agar-dilution assay; type: cell-based
Method: as §1

[7] = test system: Staphylococcus aureus V41; test: MIC, standard agar-dilution assay; type: cell-based
Method: as §1

[8] = test system: Haemophilus influenzae 76; test: MIC, standard agar-dilution assay; type: cell-based
Method: as §1

[9] = test system: Klebsiella pneumoniae KAE; test: MIC, standard agar-dilution assay; type: cell-based
Method: as §1

[10] = test system: Streptococcus pyogenes C203; test: MIC, standard agar-dilution assay; type: cell-based
Method: as §1

[11] = test system: Klebsiella pneumoniae X68; test: MIC, standard agar-dilution assay; type: cell-based
Method: as §1

[12] = test system: Streptococcus pneumoniae Park 1; type: cell-based
Method: as §1

[13] = test system: Staphylococcus aureus S13E; type: cell-based
Method: as §1

[14] = test system: Enterococcus faecium X66; test: MIC, standard agar-dilution assay; type: cell-based
Method: as §1
^b Formerly Streptococcus faecium X66

[15] = test system: Staphylococcus aureus; test: In vivo activity, experimentally infected mice (ED50); conditions: Staphylococcus aureus infection; doses administered subcutaneously to mice 1 and 4 hours postinfection
[16] = test system: Streptococcus pyogenes; test: as above; conditions: Streptococcus pyogenes infection; doses administered subcutaneously to mice 1 and 4 hours postinfection
[17] = test system: Enterococcus faecalis 2041; test: MIC, standard agar-dilution assay; type: cell-based
Method: as §1
^c Formerly Streptococcus faecalis 2041

[18] = test system: Streptococcus pneumoniae; test: In vivo activity, experimentally infected mice (ED50); conditions: Streptococcus pneumoniae infection; doses administered subcutaneously to mice 1 and 4 hours postinfection
[19] = test system: Escherichia coli N10; test: MIC, standard agar-dilution assay; type: cell-based
Method: as §1

[20] = test system: Escherichia coli EC14; test: MIC, standard agar-dilution assay; type: cell-based
Method: as §1

`CN[C@H](CC(C)C)C(=O)N[C@H]1C(=O)N[C@@H](CC(N)=O)C(=O)N[C@H]2C(=O)N[C@H]3C(=O)N[C@H](C(=O)N[C@H](C(=O)O)c4cc(O)cc(O)c4-c4cc3ccc4O)[C@H](O[C@H]3C[C@](C)(NCc4ccccc4)[C@@H](O)[C@H](C)O3)c3ccc(cc3)Oc3cc2cc(c3O[C@@H]2O[C@H](CO)[C@@H](O)[C@H](O)[C@H]2O[C@H]2C[C@](C)(NCc3ccccc3)[C@@H](O)[C@H](C)O2)Oc2ccc(cc2Cl)[C@H]1O` [Compound 11] was tested, and the MIC [1] was “.5 µg/mL”, the MIC [2] was “.25 µg/mL” and the MIC [3] was 1 µg/mL (≈ 0.575 µM). The MIC [4] was greater than 128 µg/mL, the MIC [5] was greater than 128 µg/mL and the MIC [6] was “.5 µg/mL”. For the same compound, the MIC [7] was “.5 µg/mL”, the MIC [8] was greater than 128 µg/mL and the MIC [9] was greater than 128 µg/mL. The MIC [10] was “.25 µg/mL”, the MIC [11] was greater than 128 µg/mL and the MIC [12] was “.25 µg/mL”. For the same compound, the MIC [13] was “.25 µg/mL”, the MIC [14] was “.25 µg/mL” and the ED50 [15] was 0.58 mg/kg/2. It also gave an ED50 [16] of 0.34 mg/kg/2, an MIC [17] of 1 µg/mL (≈ 0.575 µM) and an ED50 [18] of 0.37 mg/kg/2.
`CC(C)C[C@H](C(=O)N[C@H]1C(=O)N[C@@H](CC(N)=O)C(=O)N[C@H]2C(=O)N[C@H]3C(=O)N[C@H](C(=O)N[C@H](C(=O)O)c4cc(O)cc(O)c4-c4cc3ccc4O)[C@H](O[C@H]3C[C@](C)(NCc4ccccc4)[C@@H](O)[C@H](C)O3)c3ccc(cc3)Oc3cc2cc(c3O[C@@H]2O[C@H](CO)[C@@H](O)[C@H](O)[C@H]2O[C@H]2C[C@](C)(NCc3ccccc3)[C@@H](O)[C@H](C)O2)Oc2ccc(cc2Cl)[C@H]1O)N(C)Cc1ccccc1` [Compound 12] gave an MIC [1] of 8 µg/mL (≈ 4.38 µM), an MIC [2] of 8 µg/mL (≈ 4.38 µM) and an MIC [3] of 8 µg/mL (≈ 4.38 µM). It also gave an MIC [4] greater than 128 µg/mL, an MIC [5] greater than 128 µg/mL and an MIC [6] of 8 µg/mL (≈ 4.38 µM). For the same compound, the MIC [7] was 8 µg/mL (≈ 4.38 µM), the MIC [8] was greater than 128 µg/mL and the MIC [9] was greater than 128 µg/mL. The MIC [10] was 2 µg/mL (≈ 1.09 µM), the MIC [11] was greater than 128 µg/mL and the MIC [12] was 2 µg/mL (≈ 1.09 µM). It also gave an MIC [13] of 4 µg/mL (≈ 2.19 µM), an MIC [14] of 4 µg/mL (≈ 2.19 µM) and an MIC [17] of 8 µg/mL (≈ 4.38 µM).
`CN[C@H](CC(C)C)C(=O)N[C@H]1C(=O)N[C@@H](CC(N)=O)C(=O)N[C@H]2C(=O)N[C@H]3C(=O)N[C@H](C(=O)N[C@H](C(=O)O)c4cc(O)cc(O)c4-c4cc3ccc4O)[C@H](O[C@H]3C[C@](C)(NCCc4ccccc4)[C@@H](O)[C@H](C)O3)c3ccc(c(Cl)c3)Oc3cc2cc(c3O[C@@H]2O[C@H](CO)[C@@H](O)[C@H](O)[C@H]2O[C@H]2C[C@](C)(N)[C@@H](O)[C@H](C)O2)Oc2ccc(cc2Cl)[C@H]1O` [Compound 44] gave an ED50 [15] of 0.3 mg/kg/2, an ED50 [16] of 0.125 mg/kg/2 and an ED50 [18] of 0.2 mg/kg/2.
In the case of `CNC(CC(C)C)C(=O)NC1C(=O)NC(CC(N)=O)C(=O)NC2C(=O)NC3C(=O)NC(C(=O)NC(C(=O)O)c4cc(O)cc(O)c4-c4cc3ccc4O)C(OC3CC(C)(NCC(c4ccccc4)c4ccccc4)C(O)C(C)O3)c3ccc(c(Cl)c3)Oc3cc2cc(c3OC2OC(CO)C(O)C(O)C2OC2CC(C)(N)C(O)C(C)O2)Oc2ccc(cc2Cl)C1O` (stereo not shown) [Compound 46], the ED50 [15] was 0.75 mg/kg/2, the ED50 [16] was 0.14 mg/kg/2 and the ED50 [18] was 0.22 mg/kg/2.
`CNC(CC(C)C)C(=O)NC1C(=O)NC(CC(N)=O)C(=O)NC2C(=O)NC3C(=O)NC(C(=O)NC(C(=O)O)c4cc(O)cc(O)c4-c4cc3ccc4O)C(OC3CC(C)(NCCCc4ccccc4)C(O)C(C)O3)c3ccc(c(Cl)c3)Oc3cc2cc(c3OC2OC(CO)C(O)C(O)C2OC2CC(C)(NCCCc3ccccc3)C(O)C(C)O2)Oc2ccc(cc2Cl)C1O` (stereo not shown) [Compound 50] gave an ED50 [15] greater than 5.0 mg/kg/2, an ED50 [16] of 0.6 mg/kg/2 and an ED50 [18] of 1.02 mg/kg/2.
`CNC(CC(C)C)C(=O)NC1C(=O)NC(CC(N)=O)C(=O)NC2C(=O)NC3C(=O)NC(C(=O)NC(C(=O)O)c4cc(O)cc(O)c4-c4cc3ccc4O)C(OC3CC(C)(NCc4ccccc4)C(O)C(C)O3)c3ccc(c(Cl)c3)Oc3cc2cc(c3OC2OC(CO)C(O)C(O)C2OC2CC(C)(NCc3ccccc3)C(O)C(C)O2)Oc2ccc(cc2Cl)C1O` (stereo not shown) [Compound 53] showed an ED50 [15] of 1.25 mg/kg/2, an ED50 [16] of 0.2 mg/kg/2 and an ED50 [18] of 0.18 mg/kg/2.
Work on `CNC(CC(C)C)C(=O)NC1C(=O)NC(CC(N)=O)C(=O)NC2C(=O)NC3C(=O)NC(C(=O)NC(C(=O)O)c4cc(O)cc(O)c4-c4cc3ccc4O)C(OC3CC(C)(NCc4ccc(Br)cc4)C(O)C(C)O3)c3ccc(c(Cl)c3)Oc3cc2cc(c3OC2OC(CO)C(O)C(O)C2OC2CC(C)(NCc3ccc(Br)cc3)C(O)C(C)O2)Oc2ccc(cc2Cl)C1O` (stereo not shown) [Compound 59] yielded an ED50 [15] of 3.16 mg/kg/2, an ED50 [16] of 0.25 mg/kg/2 and an ED50 [18] of less than 0.31 mg/kg/2.
Compound `CNC(CC(C)C)C(=O)NC1C(=O)NC(CC(N)=O)C(=O)NC2C(=O)NC3C(=O)NC(C(=O)NC(C(=O)O)c4cc(O)cc(O)c4-c4cc3ccc4O)C(OC3CC(C)(NCc4ccc(Cl)cc4)C(O)C(C)O3)c3ccc(c(Cl)c3)Oc3cc2cc(c3OC2OC(CO)C(O)C(O)C2OC2CC(C)(NCc3ccc(Cl)cc3)C(O)C(C)O2)Oc2ccc(cc2Cl)C1O` (stereo not shown) [Compound 61] has an ED50 [15] of 1.83 mg/kg/2, an ED50 [16] of 0.10 mg/kg/2 and an ED50 [18] of 0.08 mg/kg/2.
`CNC(CC(C)C)C(=O)NC1C(=O)NC(CC(N)=O)C(=O)NC2C(=O)NC3C(=O)NC(C(=O)NC(C(=O)O)c4cc(O)cc(O)c4-c4cc3ccc4O)C(OC3CC(C)(NCc4cccc(Cl)c4)C(O)C(C)O3)c3ccc(c(Cl)c3)Oc3cc2cc(c3OC2OC(CO)C(O)C(O)C2OC2CC(C)(NCc3cccc(Cl)c3)C(O)C(C)O2)Oc2ccc(cc2Cl)C1O` (stereo not shown) [Compound 65] gave an ED50 [15] of 1.59 mg/kg/2, an ED50 [16] of 0.15 mg/kg/2 and an ED50 [18] of 0.11 mg/kg/2.
In the case of `CNC(CC(C)C)C(=O)NC1C(=O)NC(CC(N)=O)C(=O)NC2C(=O)NC3C(=O)NC(C(=O)NC(C(=O)O)c4cc(O)cc(O)c4-c4cc3ccc4O)C(OC3CC(C)(NCc4ccc(F)cc4)C(O)C(C)O3)c3ccc(c(Cl)c3)Oc3cc2cc(c3OC2OC(CO)C(O)C(O)C2OC2CC(C)(N)C(O)C(C)O2)Oc2ccc(cc2Cl)C1O` (stereo not shown) [Compound 66], the MIC [19] was greater than 128 µg/mL, the MIC [1] was 1 µg/mL (≈ 0.588 µM) and the MIC [2] was “.5 µg/mL”. The MIC [3] was 2 µg/mL (≈ 1.18 µM), the MIC [4] was greater than 128 µg/mL and the MIC [5] was greater than 128 µg/mL. The MIC [20] was greater than 128 µg/mL, the MIC [6] was 1 µg/mL (≈ 0.588 µM) and the MIC [7] was 1 µg/mL (≈ 0.588 µM). The MIC [8] was greater than 128 µg/mL, the MIC [9] was greater than 128 µg/mL and the MIC [10] was “.5 µg/mL”. The MIC [11] was greater than 128 µg/mL, the MIC [12] was “.25 µg/mL” and the MIC [13] was 1 µg/mL (≈ 0.588 µM). For the same compound, the MIC [14] was 1 µg/mL (≈ 0.588 µM), the ED50 [15] was 0.37 mg/kg/2 and the ED50 [16] was 0.18 mg/kg/2. It also gave an MIC [17] of 1 µg/mL (≈ 0.588 µM) and an ED50 [18] of 0.22 mg/kg/2.
With `CNC(CC(C)C)C(=O)NC1C(=O)NC(CC(N)=O)C(=O)NC2C(=O)NC3C(=O)NC(C(=O)NC(C(=O)O)c4cc(O)cc(O)c4-c4cc3ccc4O)C(OC3CC(C)(N)C(O)C(C)O3)c3ccc(c(Cl)c3)Oc3cc2cc(c3OC2OC(CO)C(O)C(O)C2OC2CC(C)(NCc3ccc(F)cc3)C(O)C(C)O2)Oc2ccc(cc2Cl)C1O` (stereo not shown) [Compound 67] the MIC [19] was greater than 128 µg/mL, the MIC [1] was 1 µg/mL (≈ 0.588 µM) and the MIC [2] was “.5 µg/mL”. For the same compound, the MIC [3] was 2 µg/mL (≈ 1.18 µM), the MIC [4] was greater than 128 µg/mL and the MIC [5] was greater than 128 µg/mL. The MIC [20] was greater than 128 µg/mL, the MIC [6] was “.5 µg/mL” and the MIC [7] was 1 µg/mL (≈ 0.588 µM). For the same compound, the MIC [8] was greater than 128 µg/mL, the MIC [9] was greater than 128 µg/mL and the MIC [10] was “.25 µg/mL”. For the same compound, the MIC [11] was greater than 128 µg/mL, the MIC [12] was “.125 µg/mL” and the MIC [13] was 1 µg/mL (≈ 0.588 µM). The MIC [14] was “.5 µg/mL”, the ED50 [15] was 0.33 mg/kg/2 and the ED50 [16] was less than 0.12 mg/kg/2. The MIC [17] was “.5 µg/mL” and the ED50 [18] was less than 0.12 mg/kg/2.
`CNC(CC(C)C)C(=O)NC1C(=O)NC(CC(N)=O)C(=O)NC2C(=O)NC3C(=O)NC(C(=O)NC(C(=O)O)c4cc(O)cc(O)c4-c4cc3ccc4O)C(OC3CC(C)(NCc4ccc(F)cc4)C(O)C(C)O3)c3ccc(c(Cl)c3)Oc3cc2cc(c3OC2OC(CO)C(O)C(O)C2OC2CC(C)(NCc3ccc(F)cc3)C(O)C(C)O2)Oc2ccc(cc2Cl)C1O` (stereo not shown) [Compound 68] was tested, and the ED50 [15] was 0.80 mg/kg/2, the ED50 [16] was 0.09 mg/kg/2 and the ED50 [18] was 0.12 mg/kg/2.
